# Measured values reported in PubChem BioAssay (NCI).
# “And” between values parts separate entries of the source, which are not always exact repeats. Identical values can stand only once.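 Cells were grown in 96-well plates and exposed to each compound for 48 hours at five concentrations; endpoints were interpolated linearly between bracketing concentrations, or set to the highest concentration if not reached. The concentration for 50% growth inhibition is given as GI50. TGI denotes the concentration required for complete inhibition of growth.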
# Tests used:
# Assay in all cases: growth of human tumour cells (NCI), 48 h
# SF-295 CNS = system: SF-295 CNS
# RXF 393 renal = system: RXF 393 renal
# SK-MEL-28 melanoma = system: SK-MEL-28 melanoma
# RPMI-8226 leukemia = system: RPMI-8226 leukemia
# UACC-62 melanoma = system: UACC-62 melanoma
# 786-0 renal = system: 786-0 renal
# NCI-H226 lung = system: NCI-H226 lung
# SK-OV-3 ovarian = system: SK-OV-3 ovarian
# IGROV1 ovarian = system: IGROV1 ovarian
# PC-3 prostate = system: PC-3 prostate
Compound,TGI (SF-295 CNS),TGI (RXF 393 renal),TGI (SK-MEL-28 melanoma),TGI (RPMI-8226 leukemia),TGI (UACC-62 melanoma),TGI (786-0 renal),TGI (NCI-H226 lung),TGI (SK-OV-3 ovarian),TGI (IGROV1 ovarian),TGI (PC-3 prostate),GI50 (SF-295 CNS),GI50 (RXF 393 renal),GI50 (SK-MEL-28 melanoma),GI50 (RPMI-8226 leukemia),GI50 (UACC-62 melanoma),GI50 (786-0 renal),GI50 (NCI-H226 lung),GI50 (SK-OV-3 ovarian),GI50 (IGROV1 ovarian),GI50 (PC-3 prostate)
C/C(=C\COc1ccc2ccc(=O)oc2c1)CCC(=O)C(C)(C)O,> 100 µM,39.9 µM,> 100 µM,50 µM,37.1 µM,43.3 µM,69.7 µM,99.4 µM,> 100 µM,> 100 µM,–,–,–,–,–,–,–,–,–,–
Cc1cncc2cccc(S(=O)(=O)N3CCCNC[C@@H]3C)c12,> 100 µM,19.8 µM,> 100 µM,> 100 µM,> 100 µM,> 100 µM,46.1 µM,> 100 µM,> 100 µM,> 100 µM,4.46 µM,1.82 µM,> 100 µM,42.8 µM,> 47 µM,14.6 µM,2 µM,24 µM,48.8 µM,44.3 µM
O=C(Nc1ccc(I)cc1F)c1cc(F)ccc1O,3.74 µM,4.05 µM,1.91 µM,0.888 µM,0.853 µM,6.67 µM,5.66 µM,2.59 µM,> 100 µM,6.4 µM,1.86 µM,0.732 µM,0.353 µM,0.253 µM,0.259 µM,2.19 µM,0.985 µM,0.465 µM,0.404 µM,0.843 µM
O=C(CN1CCN(c2cc3c(cc2F)c(=O)c(C(=O)O)cn3C2CC2)CC1)Nc1ccc(C(=O)/C=C/c2ccccc2)cc1,6.25 µM,> 100 µM,> 100 µM,6.73 µM,> 100 µM,> 100 µM,> 100 µM,> 100 µM,> 100 µM,> 100 µM,2.11 µM,2.5 µM,18.8 µM,2.52 µM,3.71 µM,4.5 µM,6.83 µM,27.3 µM,3.67 µM,3.16 µM
CCCCCCCC(=O)O[C@H]1[C@H]2[C@@H](CC1(C)C)C(=O)[C@]13O[C@H]1C(=O)[C@]1(CO1)[C@]23C,43.7 µM and 36.5 µM,3.97 µM and 5.31 µM,12.7 µM and 6.55 µM,18.3 µM and 3.34 µM,20.8 µM and 7.29 µM,14.1 µM,26.8 µM and 48.9 µM,44.6 µM and 61.9 µM,36.6 µM and 11.4 µM,30.8 µM,20.2 µM,1.93 µM,5.87 µM,2.95 µM,6.47 µM,–,20.2 µM,20.7 µM,20.9 µM,–
CN(C)CC1CCCCCCCCCCC1=O (centres undefined),> 10 µM,> 10 µM,> 100 µM,> 100 µM,> 100 µM,> 100 µM,> 100 µM,> 100 µM,> 100 µM,> 100 µM,–,–,–,–,–,> 100 µM,> 100 µM,–,–,> 100 µM
Cc1cccc(Cc2cnc(NC(=O)/C=C/c3ccco3)s2)c1,> 100 µM,0.0643 µM,> 100 µM,> 100 µM,> 100 µM,> 100 µM,> 23.1 µM,> 100 µM,> 100 µM,> 100 µM,0.0437 µM,0.0221 µM,> 100 µM,0.0403 µM,0.0542 µM,0.0598 µM,0.797 µM,0.0465 µM,0.0712 µM,0.04 µM
N#CCCCCCn1c2ccccc2c2c3c(c4c5ccccc5[nH]c4c21)C(=O)N(O)C3=O,6.95 µM,4.69 µM,6.61 µM,3.47 µM,–,3.23 µM,4.74 µM,19.4 µM,3.89 µM,4.51 µM,2.44 µM,1.7 µM,1.8 µM,1.04 µM,–,1.64 µM,1.93 µM,2.55 µM,1.12 µM,1.39 µM
N#CSc1cc(-c2nc3ccccc3o2)ccc1N,> 74.1 µM,26.3 µM,> 100 µM,53 µM,30.8 µM,97.4 µM,37.8 µM,> 100 µM,> 70.1 µM,81.6 µM,17.1 µM,0.965 µM,29.6 µM,15.9 µM,13.6 µM,33.4 µM,5.23 µM,76.5 µM,27.2 µM,12.5 µM
Cn1cc(C2=C(c3cccc(Cl)c3)C(=O)NC2=O)c2ccccc21,> 25 µM,> 25 µM,> 25 µM,> 25 µM,12.7 µM,> 25 µM,> 25 µM,> 25 µM,> 25 µM,> 25 µM,> 25 µM,8.22 µM,> 17.5 µM,> 25 µM,5.19 µM,20.4 µM,> 20.6 µM,> 25 µM,12.3 µM,18.3 µM
CCN1CCN(c2nc(NNC(=O)c3cccc(OC)c3)nc(N3CCN(C(c4ccccc4)c4ccccc4)CC3)n2)CC1,3.6 µM,3.1 µM,3.34 µM,4.4 µM,3.71 µM,3.58 µM,3.76 µM,7.08 µM,4.34 µM,13.4 µM,1.87 µM,1.63 µM,1.8 µM,1.84 µM,1.84 µM,1.84 µM,1.69 µM,2.72 µM,1.89 µM,2.24 µM
S=C1NC2=C(CCOc3c2ccc2ccccc32)C(c2ccc(Cl)cc2)N1 (centres undefined),> 100 µM,> 100 µM,> 100 µM,> 100 µM,76.4 µM,> 100 µM,49.5 µM,> 100 µM,> 100 µM,> 100 µM,31.9 µM,39 µM,41.1 µM,25 µM,21.7 µM,50.5 µM,17 µM,> 100 µM,52.8 µM,35.8 µM
BrCC[N+]12CCCN1CCC2,> 100 µM,29.2 µM,26.5 µM,8.38 µM,20.5 µM,22.3 µM,60.8 µM,> 93.3 µM,51.1 µM,31.2 µM,–,–,–,–,–,–,–,–,–,–
C[C@@H]1CC[C@H]2C(CN(C)CC3=C(C(F)(F)F)O[C@@H]4O[C@@]5(C)CC[C@H]6[C@H](C)CC[C@@H]3[C@@]46OO5)=C(C(F)(F)F)O[C@@H]3O[C@@]4(C)CC[C@@H]1[C@]32OO4,> 51.5 µM,> 100 µM,> 100 µM,> 49.6 µM,> 100 µM,41.7 µM,> 64.9 µM,> 100 µM,> 23.9 µM,> 100 µM,–,2.83 µM,> 32.8 µM,0.82 µM,12.4 µM,4.03 µM,3.71 µM,> 100 µM,2.3 µM,0.231 µM
Cc1c(-c2ccnc(N)n2)c2c(n1-c1ccccc1)C(=O)c1ccccc1C2=O,30.7 µM,56.5 µM,> 100 µM,> 100 µM,77.2 µM,> 100 µM,–,> 100 µM,39 µM,> 100 µM,14 µM,22.1 µM,41.8 µM,> 100 µM,27.2 µM,25.6 µM,–,39.3 µM,4.86 µM,> 100 µM
COc1cc(C2CC(c3cc(Cl)c(C)cc3O)=NN2c2ccc(S(N)(=O)=O)cc2)cc(OC)c1OC (centres undefined),3.96 µM,6.02 µM,7.86 µM,14.8 µM,8.5 µM,4.29 µM,13.3 µM,11.4 µM,5.54 µM,8.94 µM,1.8 µM,2.9 µM,3 µM,2.66 µM,2.47 µM,2.21 µM,3.73 µM,3.71 µM,2.23 µM,2.27 µM
O=C(O)CNCc1c2ccccc2nc2ccccc12,> 100 µM,> 78.3 µM,> 100 µM,71.9 µM,> 100 µM,> 95.4 µM,> 100 µM,> 100 µM,> 100 µM,> 100 µM,–,–,–,–,–,–,–,–,–,–
c1ccc2c(Nc3ccc4c(c3)OCO4)c3ccoc3nc2c1,34.3 µM,23.1 µM,58.6 µM,25.6 µM,33.1 µM,40.3 µM,> 100 µM,99.7 µM,> 100 µM,95.5 µM,14.7 µM,3.53 µM,19.2 µM,3.26 µM,13.9 µM,17.3 µM,25.5 µM,22.7 µM,31.5 µM,18.9 µM
O=C1c2ccccc2-c2c1c1ccccc1c(=O)n2CCCNCCO,4.02 µM,4.03 µM,2.95 µM,1.76 µM,1.74 µM,10.9 µM,5.38 µM,14.4 µM,3.76 µM,4.47 µM,0.568 µM,0.585 µM,1.24 µM,0.241 µM,0.304 µM,0.234 µM,1.45 µM,2.1 µM,0.501 µM,0.752 µM
CCN(CC)CCn1nc2c3c(cccc3c1=O)-c1ccccc1-2,7.45 µM,8.09 µM,15.6 µM,24.2 µM,7.81 µM,48.8 µM,2.58 µM,> 50 µM,> 50 µM,23.6 µM,1.39 µM,2.05 µM,2.56 µM,3.19 µM,1.98 µM,2.44 µM,1.18 µM,2.13 µM,2.06 µM,3.55 µM
CO[C@H]1/C=C/C=C/C=C/C[C@H](OC(=O)[C@@H](C)NC(=O)C2CCCCC2)[C@H](C)[C@@H](O)/C(C)=C\CCC2=CC(=O)C=C(NC(=O)C1)C2=O,0.966 µM,0.346 µM,0.49 µM,0.327 µM,0.682 µM,1.32 µM,0.797 µM,1.83 µM,1.28 µM,0.896 µM,0.124 µM,0.0945 µM,0.102 µM,0.111 µM,0.0801 µM,0.177 µM,0.157 µM,0.187 µM,0.0941 µM,0.128 µM
CCCCOc1nc2ccccc2cc1C1CNC(=O)c2ccccc2N1 (centres undefined),8.49 µM,10.2 µM,23.6 µM,16 µM,12.3 µM,11.1 µM,19.2 µM,13.3 µM,22.9 µM,13.9 µM,1.63 µM,2.25 µM,4.82 µM,2.81 µM,1.95 µM,3.14 µM,4.82 µM,2.94 µM,4.63 µM,2.95 µM
COC(=O)CCCCCCCCC(=O)c1c(C)[nH]c(/C=C2\N=C(c3ccc[nH]3)C=C2OC)c1C,> 100 µM,> 100 µM,> 100 µM,> 30.6 µM,> 82.9 µM,> 43.4 µM,> 100 µM,> 100 µM,> 100 µM,> 100 µM,> 58.8 µM,31.3 µM,14.9 µM,6.38 µM,10.7 µM,8.53 µM,8.72 µM,> 100 µM,> 67.3 µM,4.88 µM
O=C(O)c1ccccc1/C=C1/Nc2ccccc2C1=O,> 100 µM,> 100 µM,> 100 µM,> 100 µM,> 100 µM,> 100 µM,> 100 µM,> 100 µM,> 100 µM,> 100 µM,–,–,–,–,–,–,–,–,–,–
C=C1C(=O)O[C@H]2[C@H]1CC/C(COC(=O)c1ccc(Br)cc1)=C\CC[C@@]1(C)O[C@@H]21,3.57 µM,2.84 µM,3.39 µM,3.85 µM,2.94 µM,3.09 µM,4.57 µM,28.1 µM,2.83 µM,3.19 µM,1.67 µM,1.46 µM,1.7 µM,0.543 µM,1.48 µM,1.62 µM,2.06 µM,14.8 µM,1.27 µM,1.69 µM
O=C(N/N=C\c1cc(Br)cc(Br)c1O)N/N=C/c1cc(Br)cc(Br)c1O,15.7 µM,27.3 µM,16.1 µM,10.6 µM,10.2 µM,23.1 µM,9.82 µM,16.6 µM,–,16.7 µM,2.48 µM,3.57 µM,2.79 µM,2.72 µM,1.8 µM,10.1 µM,2.23 µM,5.21 µM,–,2.9 µM
